Patent US20130023504A1, “Modulation of Prostaglandin/Cyclooxygenase Metabolic Pathways” (HUNTER-FLEMING LIMITED, priority 2006, published 2013)
Marks after values point to notes of the source that are not given here.

Test system: COX-2 mRNA
Experiment: COX-2 mRNA in human PBMC with and without TNF-α, quantitative RT-PCR
Type: cell-based
Protocol: Whole blood was collected from donors in EDTA-supplemented pouches at the Etablissement Français du Sang (Brest, France). The PBMC were isolated then from whole blood under sterile conditions within 36 hours after collection. Gradient density centrifugation was carried out on Ficoll (Eurobio). After washing in RPMI 1640 medium (Eurobio), cells were suspended in RPMI 1640 medium supplemented with 10% heat-inactivated fetal calf serum (Eurobio), 2 mM glutamine (D. Dutscher), 100 U of penicillin/ml (D. Dutscher), and 100 μg of streptomycin/ml (D. Dutscher). Monocytes were selected by plastic adherence for 1 h and approximately 10^7 cells were plated in 6-well tissue culture plates (3 mL medium per well). All incubations were performed in a humidified incubator at 37° C. and 5% CO2. Cells were recovered and dispersed in 2 ml fresh incubation medium supplemented with either 7β-hydroxyEPIA, 7β-hydroxy-DHEA, or 7α-hydroxy-DHEA (in 20 μL ethanol) in the presence or absence of 0.01 μg/mL TNF-α (Sigma-Aldrich). Control incubations contained 20 μl ethanol but no steroid. Supernatants were collected after 4 h and 24 hours incubations for measurement of their PG contents and cells were used for subsequent RNA isolation. A single step extraction method using the Trizol Reagent (Invitrogen, Cergy-Pontoise, France) provided total RNA.
cDNAs were synthesized from TURBO DNase I—treated RNA (Ambion, Huntingdon, UK) using the Superscript first strand synthesis system kit (Invitrogen). RT-PCR amplification mixtures (50 μL) contained 2.5× RealMaster Mix/20×SYBR solution (11.25 μL) (Eppendorf, Le Pecq, France) and 200 nM forward and reverse primers. Reactions were run on a RealPlex ep gradient S mastercycler (Eppendorf). The cycling conditions were 10 minutes at 95° C. and 45 cycles at 95° C., 55° C. and 68° C. for 15 seconds, 30 seconds and 30 seconds, respectively. Each assay included a standard curve of four serial dilution points of control cDNA. The HPRT1 housekeeping gene was used for quantification. All oligonucleotide primers (Table 2) were synthesized by Genecust/Distribio (Evry, France). The specificity of the amplified product was monitored by examining the melting curve of the product and confirmed by analysis on agarose gel electrophoresis.
All assays were carried out in triplicate and results were plotted as mean±S.E.M. One-way analysis of variance was performed followed by Duncan's multiple range tests in order to compare the differences between groups. Differences were considered statistically significant when p<0.05.

SMILES: CC12CCC3C(C1CCC2=O)[C@@H](O)C[C@H]1C[C@@H](O)CCC31C (stereo partly drawn) [Compound 7β-OH-EPIA, 7β-hydroxy-EPIAndrosterone]
- COX-2 (mRNA), mRNA production relative to controls (1 nM + TNF-α (10 ng/mL), 4 h): 7.39 ± 0.282^c
- COX-2 (mRNA), mRNA production relative to controls (1 nM + TNF-α (10 ng/mL), 24 h): 2.74 ± 0.555^c
- COX-2 (mRNA), mRNA production relative to controls (1 nM, 4 h, without TNF-α): 0.56 ± 0.072^b
- COX-2 (mRNA), mRNA production relative to controls (1 nM, 24 h, without TNF-α): 0.82 ± 0.27^b
- COX-2 (mRNA), mRNA production relative to controls (10 nM + TNF-α (10 ng/mL), 4 h): 2.75 ± 0.147^d
- COX-2 (mRNA), mRNA production relative to controls (10 nM + TNF-α (10 ng/mL), 24 h): 0.94 ± 0.194^d
- COX-2 (mRNA), mRNA production relative to controls (10 nM, 4 h, without TNF-α): 0.94 ± 0.048
- COX-2 (mRNA), mRNA production relative to controls (10 nM, 24 h, without TNF-α): 1.66 ± 0.408
- COX-2 (mRNA), mRNA production relative to controls (100 nM + TNF-α (10 ng/mL), 4 h): 5.76 ± 0.660
- COX-2 (mRNA), mRNA production relative to controls (100 nM + TNF-α (10 ng/mL), 24 h): 0.67 ± 0.132^d
- COX-2 (mRNA), mRNA production relative to controls (100 nM, 4 h, without TNF-α): 1.10 ± 0.108
- COX-2 (mRNA), mRNA production relative to controls (100 nM, 24 h, without TNF-α): 1.05 ± 0.214
